{
  "source": "patent US20070087978A1",
  "about": "“Method of Controlling Animal Pests” (priority 1999, published 2007)",
  "key": {"[1]": {"tested_on": "Erwinia (Fireblight)", "settings": "in vivo", "excerpt": "A series of foliar sprays was applied before, during and after bloom and later in the season as needed. […] This unexpected, unusual multiple benefit indicates a phytotherapeutic defense wherein the copper molecule, it is believed, is rendered metabolizable by the plant, thereby enhancing its own defense characteristics. The molecule of copper is rendered systemic so that its action is accomplished, most importantly, inside the treated plants. Thus a continuity of protection and a reinvigorating effect on the plant are assured, which is evidenced by the quantity and unblemished quality of the fruit.\nIn a replicated study with controls, 10 foliar sprays were applied between March and August at times most useful to control the disease in the course of the season's adverse weather variables which encourage Erwinia. By the time of harvest, the normal state of distress of the trees' photosynthetic activity with standard copper bactericides such as copper oxychloride or the classic Bordeau mixture was missing. The consequences of this physiology were very evident at the time of harvest quantitatively and qualitatively."}, "[2]": {"tested_on": "white flies", "assay": "Control of white flies on poinsettia", "type": "in vivo", "excerpt": "It was compared to untreated plants or plants treated with the commercial insecticides Bifenthrin, Neem Oil or Acephate."}, "[3]": {"tested_on": "silverleaf whitefly, Bemista argentifolii", "type": "in vivo", "settings": "3 days after treatment, rate 2.5 oz/10 gal. water", "method": "In another study, twenty poinsettia plants were planted into 6.0 inch containers and were grown in a greenhouse and arranged in a completely randomized design (CRD). […] Plants were sampled before (precount) and 3 days after treatment (DAT) by randomly harvesting 10 leaves from each plant and then counting the number of live and dead whitefly nymphs.\nAll data were analyzed in a completely randomized design using a two-way analysis of variance (ANOVA) for the number of live whitefly nymphs and percent mortality 3 days after treatment. Percent mortality was determined by dividing the number of dead whiteflies by the total number of whiteflies (alive and dead)."}, "[4]": {"tested_on": "two spotted spider mite, Tetranychus urticae", "assay": "Spider mite control on greenhouse-grown potted miniature roses", "type": "in vivo", "settings": "rate 0.4 oz. per 10 gallons", "excerpt": "Mites are a serious pest of plants grown throughout the world. […] It was compared to untreated control plants or plants treated with the commercial miticide, Avermectin, (Avid) at 0.4 oz. Per 10 gallons. There were six replicate plants per treatment. Adult and nymph spider mites were counted on three areas of each plant (upper, middle, lower). The sum of these three measurements is presented."}, "[5]": {"tested_on": "Spider Mite", "type": "in vivo", "settings": "0.4 ounces per 10 gallons", "method": "Another experiment was conducted on Marigolds in 6-inch pots. […] It was compared to untreated controls, the commercial miticide Avermectin (Avid, Merck) at 0.4 ounces per 10 gallons, and the commercial Neem-based insecticide Triact 90 at 10.0 mL per liter. There were 6 replications. Plant samples of 5 leaves were taken randomly from upper to lower plant areas."}, "[6]": {"tested_on": "nematode Aphielenchoides frageria", "assay": "Nematode trial on Anemone vitfolia", "type": "in vivo", "settings": "repeated measure ANOVA and Kruskal-Wallis ANOVA", "excerpt": "In another trial, no control of the nematode Aphielenchoides […] on Anemone vitfolia was found as to nematode count when measured by repeated measure analysis of variance (ANOVA) and non-[…] for either KT-19827 or Avermectin. […] The symptomatic leaf analysis was done at the end of the 12 week trial period, during which 6 sprays were applied at 2 week intervals. ANOVA was the analytical measurement methodology."}, "[7]": {"tested_on": "Erwinia Amylovora", "assay": "KT-19827 compared with an SAR on pear with Erwinia", "type": "in vivo", "excerpt": "Systemic Activator Resistance (SAR) materials affect the treated plant so it resists outbreaks of disease over longer periods of time. KT-19827 was compared with a leading commercial SAR called Bion or Actiguard (Acibenszolar-S-Methyl by Novaritis) against Erwinia Amylovora on pear trees, variety “Butirra”. The test was for the full growing season. Efficacy against Erwinia on the trees and fruit was 98% for […], 73.6% for Bion and zero on the untreated control pear trees. Standard label rates for each product were applied as a foliar spray in an equal manner.\nThe study was not designed to measure the comparative quantity of pears produced on the three plots."}},
  "data": [
    {"compound": "tannate complex of picro cupric ammonium formate [KT-19827]", "values": [
      {"measurement": "damage to tender tissue (blooms)", "setting": "[1]", "result": "without damage to tender blooms"}
    ]},
    {"compound": "Cc1c(COC(=O)[C@@H]2[C@H](/C=C(\\Cl)C(F)(F)F)C2(C)C)cccc1-c1ccccc1", "note": "(racemic) [Befenthria, Bifenthrin]", "values": [
      {"measurement": "Mean Number of White Flies", "setting": "[2]; 6 Days After Treatment, rate 0.1", "result": "27.7 living whitefly immatures per leaf"},
      {"measurement": "Mean Number of White Flies", "setting": "[2]; 10 Days After Treatment, rate 0.1", "result": "8.7 living whitefly immatures per leaf"}
    ]},
    {"compound": "CCOP(=S)(OCC)Oc1nc(Cl)c(Cl)cc1Cl", "note": "[Chlorpyrifos, chlorpyrifos]", "values": [
      {"measurement": "Live Whitefly Nymphs (3 DAT)", "setting": "[3]", "result": 143.0, "unit": "bc"},
      {"measurement": "% Mortality", "setting": "[3]; dead / total whiteflies", "result": 34.0, "unit": "ab %"}
    ]},
    {"compound": "CC[C@H](C)[C@H]1O[C@]2(C=C[C@@H]1C)C[C@@H]1C[C@@H](C/C=C(\\C)[C@@H](O[C@H]3C[C@H](OC)[C@@H](O[C@H]4C[C@H](OC)[C@@H](O)[C@H](C)O4)[C@H](C)O3)[C@@H](C)/C=C/C=C3\\CO[C@@H]4[C@H](O)C(C)=C[C@@H](C(=O)O1)[C@]34O)O2", "note": "[Avermectin]", "values": [
      {"measurement": "Mean Number of Adult and Nymph Mites", "setting": "[4]; 6 Days After Treatment, sum of upper, middle, lower plant areas", "result": 0, "unit": "b"},
      {"measurement": "Mean Number of Adult and Nymph Mites", "setting": "[4]; 10 Days After Treatment", "result": 0.2, "unit": "b"},
      {"measurement": "Mean Number of Adult and Nymph Mites", "setting": "[4]; 16 Days After Treatment", "result": 0.7, "unit": "b"},
      {"measurement": "mite population, Week 2", "setting": "[5]", "result": 6.2, "unit": "c"},
      {"measurement": "mite population, Week 3", "setting": "[5]", "result": 23.8, "unit": "c"},
      {"measurement": "mite population, Week 1", "setting": "[5]; samples of 5 leaves", "result": 0.0, "unit": "b"},
      {"measurement": "Mean Number of White Flies", "setting": "[2]; 6 Days After Treatment, rate 0.5", "result": "26.8 living whitefly immatures per leaf"},
      {"measurement": "Mean Number of White Flies", "setting": "[2]; 10 Days After Treatment, rate 0.5", "result": "44.5 living whitefly immatures per leaf"},
      {"measurement": "control as to nematode count", "setting": "[6]", "result": "no control"}
    ]},
    {"compound": "CSC(=O)c1cccc2nnsc12", "note": "[Bion, Acibenszolar-S-Methyl]", "values": [
      {"measurement": "packets of harvested pears showing evidence of disease", "setting": "[7]; at harvest", "result": "17 out of 238"},
      {"measurement": "Efficacy against Erwinia on the trees and fruit", "setting": "[7]; pear variety Butirra, full growing season, standard label rates, foliar spray", "result": 73.6, "unit": "%"}
    ]}
  ]
}
